Source: US5342604A (The Dow Chemical Company, priority 1992, dated 1994)
Counter-ions that a name gives are not always drawn. Like-named read-outs stand apart in the source and are kept apart here.

Assays:
[1] = Percent complex determination, yttrium complexes (Sephadex C-25 cation exchange); type: physicochemical; conditions: Y
Description: The yttrium and/or samarium complexes of several of the compounds were prepared and percent complexation determined as follows:
Complexes were made by preparing a 0.0003M yttrium solution in water. (YCl3 ·6H2 O, 303.26 g/mole; Y(OAc)3, 12.1% H2 0). Radioactive YCl3 (Oakridge National Laboratories) was added to give the desired number of counts. Ten μl of ligand solution (at 0.03M) were added to 990 μl of the Y solution, giving a ligand-to-metal ratio of 1:1. (Ten times the amount of ligand solution was used for a 10:1 ligand to metal ratio.) The pH was then adjusted to 7.4 using microliter quantities of hydrochloric acid or sodium hydroxide. The solution was then tested for the amount of complexed yttrium using the cation exchange method given below.
(§1) A disposable 10 ml plastic (Biorad) column was filled with 1 to 2 ml of water-swelled Sephadex™ C-25 cation exchange resin. The water was pressure eluted to the top of the resin. Fifteen μl of the complex (or more if counts were low) were added to the top of the resin. This was followed by 2 ml of 4:1 (V:V) isotonic saline:conc. ammonium hydroxide solution as an eluent which was allowed to drip into a counting tube. This was also pressure eluted to the top of the resin. An additional 2 ml of the eluent were added and the column pressure eluted to remove all liquid. The dried resin was then placed in a third counting tube and the three tubes counted on a NaI well counter using a Canberra multichannel analyzer linked to a computer. The percent complex was determined by dividing the number of counts in the two elutions by the total counts in the elutions plus the column, all times 100. By this method, uncomplexed yttrium was retained on the column.

[2] = rat, in vivo, iv, 120 min
Description: (§3) Also samarium was injected as samarium chloride in unchelated form.
(§4) Sprague-Dawley rats weighing from 150 to 200 g were purchased from Charles River Laboratories. These animals were placed in cages and fed water and food ad libitum. The animals were acclimated for at least five days before use. Prior to injection of complex, the animals were placed under a heat lamp (15 to 30 minutes) to dilate the tail vein. Then, the animal was placed in a restraining cage, the tail cleaned with an alcohol swipe, and the animal injected (50 to 200 μl) via the tail vein. After injection, the animal was placed in another cage for two hours after which time the animal was sacrificed by cervical dislocation. The animal was then dissected, the parts rinsed with deionized H2 O, patted dry, and weighed into a tared counting vial. Whatever size of injection was made, at least three standards of the same material were prepared and counted with the animal parts.

[3] = In vivo screening of bifunctional chelates: biodistribution, percent injected dose in liver; conditions: rat, i.v. tail vein, 2 hours
Description: as §3, §4

[4] = Percent complex determination, samarium complexes (Sephadex C-25 cation exchange); type: physicochemical
Description: as §1, with “100.” for “100. By this method, uncomplexed yttrium was retained on the column.”
Samarium complexes were formed as described previously for yttrium complexes except that 0.0003M samarium was prepared by dissolution of Sm2 03 (348.7 g mole) in 0.1M hydrochloric acid. […] Percent complex determination was made in the same manner as for the yttrium complex.

[5] = rat, in vivo, 120 min
Description: Complexes were prepared by mixing a solution of ligand and metal then adjusting the pH to 7-8. The amount of metal that was complexed to ligand was determined by cation exchange chromatography. Free metal was retained by the resin, metal in the form of a complex was not.
One-hundred μl of the complexes were injected into the tail vein of three Sprague Dawley rats. Two hours after injection, the rats were killed by cervical dislocation and samples of tissues were taken. The tissues were weighed and the amount of radiation in each tissue determined by measuring the number of counts using a NaI well counter and comparing them to standards. […] The amount in bone was 25 times the % dose in a femur. […] Non-radioactive metal was used to obtain the desired ligand to metal ratios and tracer radioactive metal was used to obtain the biodistribution.

[6] = Inertness of samarium complex to pH change; type: physicochemical
Description: as §1
(§2) One portion was treated with 1-2 μl portions of 0.1N hydrochloric acid until the pH was lowered and the other portion was treated with 0.1N sodium hydroxide to bring the pH up. The complexes were allowed to set for 5-10 minutes at each pH change, then they were sampled to determine the percent complexation at that pH by the method described for Examples 16 through 33.
as §2, with “1-2 μportions” for “1-2 μl portions”, “of 1.0N” for “of 0.1N”, “with 0.1N, 1.0N and 50 weight %” for “with 0.1N”, “for about 5” for “for 5-10”

[7] = Lability of yttrium complexes on addition of excess metal; type: physicochemical; conditions: Y
Description: as §1
The 1:1 complex of yttrium with 1-(p-aminobenzyl)diethylenetriaminepentaacetic acid (ABDTPA), a well known bifunctional chelant used in the literature, and with the ligand of Example 2 (Now Ex. XVI) and Example 12 (now Ex. XVII) were prepared using the techniques described earlier. Several 100 microliter aliquots were then withdrawn into separate centrifuge tubes. Excess metal was added such that the total volume change is minimized and the time noted. One-half hour after metal addition, the percent complex was determined by the Sephadex™ C-25 method and this was compared to the original amount of complex. The percent complex versus added metal gives an indication as to the lability of the ligand-metal complex. Results are given below and are compared to the EDTA-yttrium complex.

[8] = Sm, ligand/metal ratio about 50:1
[9] = Sm, ligand/metal ratio not stated

CC(=O)Nc1ccc(O)c(C(C(=O)O)N(CC#N)CCN(CC(=O)O)CC(=O)O)c1 (stereo not shown) [Example 4, 2-[(2-{[bis(carboxymethyl)]amino}ethyl) (cyanomethyl)amino]-2-(5-acetamido-2-hydroxyphenyl)ethanoic acid]
% Complex ([1]; ligand/metal 10:1): > 99%
% Injected Dose in Liver [2]: 1.4%

[Cl][Sm]([Cl])[Cl] [SmCl3, samarium chloride, reference compound]
% Injected Dose in Liver ([3]; Sm injected as samarium chloride in unchelated form): 39%

CC(=O)Nc1cc(CN(CCN(CC(=O)O)CC(=O)O)CC(=O)O)c(O)c(CN(CCN(CC(=O)O)CC(=O)O)CC(=O)O)c1 [Example 11]
% Complex ([1]; ligand/metal 10:1): 99%
% Complex ([1]; ligand/metal ratio about 1:1): 98%

Nc1ccc(O)c(C(C(=O)O)N(CCN(CC(=O)O)CC(=O)O)CC(=O)O)c1 (stereo not shown) [Example 5, 2-[(2-{[BIS(CARBOXYMETHYL)]-AMINO}ETHYL) (CARBOXYMETHYL)AMINO]-2-(5-AMINO-2HYDROXYPHENYL)ETHANOIC ACID]
% Complex ([1]; ligand/metal 10:1): 99%
% Injected Dose in Liver [2]: 0.38%

2-[BIS(2-{[(BIS(CARBOXYMETHYL)]AMINO}ETHYL) AMINO]-2-[5-AMINO-2-(CARBOXYMETHYLOXY)PHENYL]ETHANOIC ACID AND 2-[{2-[(2-{[BIS(CARBOXYMETHYL)]AMINO}ETHYL)(CARBOXYMETHYL)AMINO]ETHYL} (CARBOXYMETHYL)AMINO]-2-[5-AMINO-2-(CARBOXYMETHYLOXY)PHENYL]ETHANOIC ACID [Example 7]
% Complex [4, 8]: 96%

2-[(2-[(2-[(2-{[BIS(CARBOXYMETHYL)]AMINO}ETHYL) (CARBOXYMETHYL)AMINO]ETHYL) (CARBOXYMETHYL)AMINO]ETHYL)(CARBOXYMETHYL)AMINO]-2-[5-ACETAMIDO2-(CARBOXYMETHYLOXY) PHENYL]ETHANOIC ACID AND 2[(2-[(2-{[BIS(CARBOXYMETHYL)]AMINO}ETHYL)(CARBOXYMETHYL) AMINO]ETHYL)(2-{[BIS(CARBOXYMETHYL)]AMINO}ETHYL)AMINO]-2-[5-ACETAMIDO-2-(CARBOXYMETHYLOXY) PHENYL]ETHANOIC ACID [Example 9]
% Complex ([4]; Sm, ligand/metal 10:1): > 99%
% Injected Dose in Liver ([3]; Sm, ligand/metal 10:1): 2.8%

CC(=O)Nc1ccc(O)c(C(NCCN(CC(=O)O)CC(=O)O)C(=O)O)c1 (stereo not shown) [Example 1, 2-[(2-{[bis(carboxymethyl)]amino}ethyl)amino]-2-(5-acetamido-2-hydroxyphenyl)ethanoic acid]
% Complex ([1]; ligand/metal 10:1): 98%
% Injected Dose in Liver [2]: 0.87%
biodistribution, blood (% dose) [5]: 0.57%
biodistribution, bone (% dose) [5]: 56.1%
biodistribution, liver (% dose) [5]: 0.87%
biodistribution, muscle (% dose) [5]: 0.78%
biodistribution, spleen (% dose) [5]: 0.03%

Nc1ccc(OCC(=O)O)c(C(C(=O)O)N(CCN(CCN(CC(=O)O)CC(=O)O)CC(=O)O)CC(=O)O)c1 (stereo not shown) [Example 8, 2-[{2-[(2-{[BIS(CARBOXYMETHYL)]-AMINO}ETHYL) (CARBOXYMETHYL) AMINO]ETHYL}(CARBOXYMETHYL)AMINO ]-2-[5-AMINO-2- CARBOXYMETHYLOXY)PHENYL]ETHANOIC ACID]
% Complex [4, 8]: > 99%

2-[{2-[(2{[B IS(CARBOXYMETHYL)]AMINO}ETHYL) (CARBOXYMETHYL) AMINO]ETHYL} (CARBOXYMETHYL) AMINO]-2-[5-AMINO-2-(CARBOXYMETHYLOXY)PHENYL]ETHANOIC ACID, SAMARIUM COMPLEX [XXIII]
percent complexation ([4]; Sm, pH about 7, Example XXIII): 96%
% Complexed ([6]; Table VI, pH 1, about 5 minutes): 91%
% Complexed ([6]; Table VI, pH 2, about 5 minutes): 88%
% Complexed ([6]; Table VI, pH 3, about 5 minutes): 92%
% Complexed ([6]; Table VI, pH 5, about 5 minutes): 96%
% Complexed ([6]; Table VI, pH 7, about 5 minutes): 96%
% Complexed ([6]; Table VI, pH 9, about 5 minutes): 99%
% Complexed ([6]; Table VI, pH 12, about 5 minutes): 98%
% Complexed ([6]; Table VI, pH 13, about 5 minutes): 99%

CC(=O)Nc1cc(CN(CCN(CC(=O)O)CC(=O)O)CC(=O)O)c(O)c(CN(CC(=O)O)CC(=O)O)c1 [Example 15, 2-({[BIS(CARBOXYMETHYL)]AMINO}METHYL)-6-{[({[BIS(CARBOXYMETHYL)]AMINO}ETHYL)((CARBOXYMETHYL)AMINO]METHYL}-4-(ACETAMIDO)PHENOL]
% Complex ([1]; ligand/metal 10:1): 99%
% Injected Dose in Liver [2]: 0.37%

CC(=O)Nc1ccc(O)c(CN(CCN(CC(=O)O)Cc2cc(NC(C)=O)ccc2O)CC(=O)O)c1 [Example U, N,N'-DI(2-HYDROXY, 5-ACETAMIDOBENZYL)ETHYLENEDIAMINE-N,N'-DIACETIC ACID, reference compound]
% Injected Dose in Liver [3, 9]: 12%

2-[bis(2-{[(bis(carboxymethyl)]amino}ethyl) amino]-2-[5-acetamido-2-(carboxymethyloxy)phenyl]ethanoic acid and 2-[{2-[(2-{[bis(carboxymethyl)]amino}ethyl)(carboxymethyl)amino]ethyl} (carboxymethyl)amino]-2-[5-acetamido-2-(carboxymethyloxy)phenyl]ethanoic acid [Example 6]
% Complex ([4]; Sm, ligand/metal 10:1): > 99%
% Injected Dose in Liver ([3]; Sm, ligand/metal 10:1): 0.38%

Nc1ccc(O)c(C(NCCNC(C(=O)O)c2cc(N)ccc2O)C(=O)O)c1 (stereo not shown) [Example X, […][(2-HYDROXY-5AMINOPHENYL)ACETIC ACID], reference compound]
% Injected Dose in Liver [3, 9]: 24%

CC(=O)Nc1ccc(OCC(=O)O)c(C(C(=O)O)N(CCN(CC(=O)O)CC(=O)O)CC(=O)O)c1 (stereo not shown) [Example 2, 2-[(2-{[bis(carboxymethyl)]amino}ethyl) (carboxymethyl)amino]-2-[5-acetamido-2-(carboxymethyloxy)phenyl]ethanoic acid]
% Complex ([1]; ligand/metal 10:1): > 99%
% Injected Dose in Liver [2]: 0.22%
% Complex ([7]; Metal/Ligand Molar Ratio 1): 99%
% Complex ([7]; Metal/Ligand Molar Ratio 10, one-half hour after metal addition): 94%
% Complex ([7]; Metal/Ligand Molar Ratio 100, one-half hour after metal addition): 84%
% Complex ([7]; Metal/Ligand Molar Ratio 500, one-half hour after metal addition): 75%
% Complex ([4]; Sm, ligand/metal 10:1): > 99%

2-[BIS(2-{[(BIS(CARBOXYMETHYL)] AMINO}ETHYL)AMINO]-2-[5-AMINO-2-(CARBOXYMETHYLOXY) PHENYL]ETHANOIC ACID AND 2-[{2-[(2{[BIS(CARBOXYMETHYL)]AMINO}ETHYL) (CARBOXYMETHYL)AMINO]ETHYL}(CARBOXYMETHYL)AMINO]-2-[5-AMINO-2-(CARBOXYMETHYLOXY)PHENYL]ETHANOIC ACID, SAMARIUM COMPLEX [XXII]
percent Sm that was complexed ([4]; about pH 7.5, Example XXII): 100%
% Complexed ([6]; Table V, pH 1, 5-10 minutes): 98%
% Complexed ([6]; Table V, pH 2, 5-10 minutes): 100%
% Complexed ([6]; Table V, pH 3, 5-10 minutes): 100%
% Complexed ([6]; Table V, pH 4, 5-10 minutes): 100%
% Complexed ([6]; Table V, pH 5, 5-10 minutes): 100%
% Complexed ([6]; Table V, pH 7, 5-10 minutes): 100%
% Complexed ([6]; Table V, pH 9, 5-10 minutes): 100%
% Complexed ([6]; Table V, pH 11, 5-10 minutes): 100%
% Complexed ([6]; Table V, pH 13, 5-10 minutes): 100%

Nc1ccc(OCC(=O)O)c(C(C(=O)O)N(CCN(CC(=O)O)CC(=O)O)CC(=O)O)c1 (stereo not shown) [Example 3, 2-[(2-{[BIS(CARBOXYMETHYL)]AMINO}ETHYL) (CARBOXYMETHYL)AMINO]-2-[5-AMINO-2-(CARBOXYMETHYLOXY)PHENYL]ETHANOIC ACID, PENTA SODIUM SALT]
% Complex ([1]; ligand/metal 10:1): > 99%
% Injected Dose in Liver [2]: 0.22%
